Entries after “also recorded” stand apart in the source; their conditions may differ. Marks after values point to notes of the source that are not given here.

These results are taken from patent publication US10351594B2, “Process for preparing compounds having triple activities of thrombolysis, antithrombosis, and radical scavenging” (Shanghai Lumosa Therapeutics Co., Ltd., priority 2013, dated 2019).

This assay relates to thrombus (rat arteriovenous bypass thrombolysis model). Description: Thrombolytic activity via intravenous administration, rat arteriovenous bypass thrombolysis model. To be noted: rat; for Weight reduction in thrombus: intravenous injection, 5Aa-p 0.1 nmol/kg, 1 hour, n = 10; for Thrombolytic activity, result in words: intravenous, 0.1 nmol/kg (5Ak also 0.01 and 0.001 nmol/kg), urokinase 20000 U/kg. The assay is classed as in vivo, male SD rats. On the procedure: 200-220 g male SD rats were anesthetized with 20% urethane solution (6 mL/kg, ip). Anesthetized rats were fixed in a supine position, and the right common carotid artery was separated, clamped at the proximal end with an arterial clip, and penetrated with a suture at the proximal and distal ends, respectively. The suture at the distal end is clipped tightly by a hemostatic clamp at the skin/fur. Cannulation was performed at the distal end, the arterial clamp was loosened, and about 1 ml arterial blood was discharged into a 1 mL EP vial. 0.1 mL rat arterial blood was injected into a vertically fixed glass tube (15 mm in length, with an inner diameter of 2.5 mm and an outer diameter of 5.0 mm, sealed with a rubber stopper at the bottom), into which was immediately inserted a thrombus immobilization screw made of stainless steel. […] 40 min after the blood coagulated, the rubber stopper at the bottom of the glass tube was removed, the stem of the thrombus immobilization screw was fixed by forceps, and the thrombus-wrapped thrombus immobilization screw was carefully taken out from the glass tube and precisely weighted.
A bypass cannula was composed of 3 segments. The middle segment was a polyethylene tube having a length of 60 mm and an inner diameter of 3.5 mm. The segments on both ends were similar polyethylene tubes having a length of 100 mm, an inner diameter of 1 mm and an outer diameter of 2 mm, one end of which was pulled to form a tip, with an outer diameter of 1.0 mm (used in inserting into the rat carotid artery or vein), the other end of which was sheathed by a polyethylene tube having a length of 7 mm and an outer diameter of 3.5 mm (thickened, used in inserting into the polyethylene tube of the middle segment). The inner wall of the 3-segment cannula was entirely silylated. The thrombus-wrapped thrombus immobilization screw was placed into the polyethylene tube of the middle segment, and both ends of the tube sheath the thickened ends of two polyethylene tubes. The cannula was filled with a heparin solution in normal saline (50 IU/kg) through the tip end by using an injector and was ready for use.
The left external jugular vein of the rat was separated and penetrated with a suture at the proximal and distal ends respectively, and the distal end was ligated. An incision was carefully made on the exposed left external jugular vein, and the tip of the bypass cannula prepared as described above was inserted into the proximal end of the incision in the left external jugular vein, away from the stem of the thrombus immobilization screw in the middle segment of the bypass cannula (which accommodated the accurately weighed thrombus immobilization screw). A precise amount of heparin in saline (50 IU/kg) was injected through the tip at the other end by using an injector. At this moment, without removing the injector from the polyethylene tube, the tube between the injector and the polyethylene tube was clamped with a hemostatic clamp. The blood flow was stopped by clamping the proximal end of the right common carotid artery with an arterial clip, and an incision was cut carefully across the common carotid artery near the clip. The injector was pulled out of the polyethylene tube through the tip, and the tip of the polyethylene tube was then inserted into the proximal end of the artery incision. Both ends of the bypass cannula were fixed to the artery or vein with #4 sutures.
A scalp needle was used to pass saline solution, a urokinase in saline solution or varied concentrations of the compounds in saline solution through the middle section of the bypass cannula (which accommodated the accurately weighed thrombus immobilization screw) to a position at the proximal vein and away from the thrombus immobilization screw. The artery clip was then removed to allow blood to flow from the artery to the vein through the bypass cannula. A rat arteriovenous bypass thrombolysis model was thus established. […]

On to “3S-6,7-dihydroxy-1,1-dimethyl-1,2,3,4-tetrahydro-isoquinoline-3-acyl-Lys(Pro-Ala-Ala) [Compound 5Aa]”, for which the “Weight reduction in thrombus” value was 19.35 ± 2.76^b mg and the “Thrombolytic activity, result in words” value is given as “comparable to that of urokinase; also recorded: higher thrombolytic activity”.

Turning to “3S-6,7-dihydroxy-1,1-dimethyl-1,2,3,4-tetrahydro-isoquinoline-3-acyl-Lys(Pro-Ala-Gly) [Compound 5Ag]”, the “Weight reduction in thrombus” value is on record as 18.98 ± 2.14^b mg and the “Thrombolytic activity, result in words” value was “comparable to that of urokinase; also recorded: higher thrombolytic activity”. Regarding “3S-6,7-dihydroxy-1,1-dimethyl-1,2,3,4-tetrahydro-isoquinoline-3-acyl-Lys(Pro-Ala-Val) [Compound 5Ab]”, the “Weight reduction in thrombus” value is reported as 17.12 ± 1.64^a mg. Turning to `C[C@H](NC(=O)[C@@H]1CCCN1)C(=O)N[C@@H](Cc1c[nH]c2ccccc12)C(=O)NCCCC[C@H](NC(=O)[C@@H]1Cc2cc(O)c(O)cc2C(C)(C)N1)C(=O)O` [Compound 5Ac, 3S-6,7-dihydroxy-1,1-dimethyl-1,2,3,4-tetrahydro-isoquinoline-3-acyl-Lys(Pro-Ala-Trp)], the “Weight reduction in thrombus” value is 16.23 ± 2.81^a mg. In the case of `C[C@H](NC(=O)[C@@H]1CCCN1)C(=O)N[C@@H](Cc1ccc(O)cc1)C(=O)NCCCC[C@H](NC(=O)[C@@H]1Cc2cc(O)c(O)cc2C(C)(C)N1)C(=O)O` [Compound 5Ad, 3S-6,7-dihydroxy-1,1-dimethyl-1,2,3,4-tetrahydro-isoquinoline-3-acyl-Lys(Pro-Ala-Tyr)], the “Weight reduction in thrombus” value is 18.11 ± 2.48^b mg and the “Thrombolytic activity, result in words” value is recorded as “higher thrombolytic activity”. Regarding `C[C@H](NC(=O)[C@@H]1CCCN1)C(=O)N1CCC[C@H]1C(=O)NCCCC[C@H](NC(=O)[C@@H]1Cc2cc(O)c(O)cc2C(C)(C)N1)C(=O)O` [Compound 5Ae, 3S-6,7-dihydroxy-1,1-dimethyl-1,2,3,4-tetrahydro-isoquinoline-3-acyl-Lys(Pro-Ala-Pro)], the “Weight reduction in thrombus” value is 13.63 ± 1.92^a mg.

For `C[C@H](NC(=O)[C@@H]1CCCN1)C(=O)N[C@@H](Cc1ccccc1)C(=O)NCCCC[C@H](NC(=O)[C@@H]1Cc2cc(O)c(O)cc2C(C)(C)N1)C(=O)O` [Compound 5Af, 3S-6,7-dihydroxy-1,1-dimethyl-1,2,3,4-tetrahydro-isoquinoline-3-acyl-Lys(Pro-Ala-Phe)], the “Weight reduction in thrombus” value is given as 17.92 ± 1.69^b mg and the “Thrombolytic activity, result in words” value was “comparable to that of urokinase; also recorded: higher thrombolytic activity”. For `C[C@H](NC(=O)[C@@H]1CCCN1)C(=O)N[C@@H](CO)C(=O)NCCCC[C@H](NC(=O)[C@@H]1Cc2cc(O)c(O)cc2C(C)(C)N1)C(=O)O` [Compound 5Ah, 3S-6,7-dihydroxy-1,1-dimethyl-1,2,3,4-tetrahydro-isoquinoline-3-acyl-Lys(Pro-Ala-Ser)], the “Weight reduction in thrombus” value was 17.10 ± 1.79^a mg.

As for `CC[C@H](C)[C@H](NC(=O)[C@H](C)NC(=O)[C@@H]1CCCN1)C(=O)NCCCC[C@H](NC(=O)[C@@H]1Cc2cc(O)c(O)cc2C(C)(C)N1)C(=O)O` [Compound 5Ai, 3S-6,7-dihydroxy-1,1-dimethyl-1,2,3,4-tetrahydro-isoquinoline-3-acyl-Lys(Pro-Ala-Ile)], the “Weight reduction in thrombus” value was 16.00 ± 2.03^a mg. Turning to `C[C@H](NC(=O)[C@@H]1CCCN1)C(=O)N[C@H](C(=O)NCCCC[C@H](NC(=O)[C@@H]1Cc2cc(O)c(O)cc2C(C)(C)N1)C(=O)O)[C@@H](C)O` [Compound 5Aj, 3S-6,7-dihydroxy-1,1-dimethyl-1,2,3,4-tetrahydro-isoquinoline-3-acyl-Lys(Pro-Ala-Thr)], the “Weight reduction in thrombus” value is given as 15.23 ± 2.45^a mg. The same measure, in the same setting: next, `CC(C)C[C@H](NC(=O)[C@H](C)NC(=O)[C@@H]1CCCN1)C(=O)NCCCC[C@H](NC(=O)[C@@H]1Cc2cc(O)c(O)cc2C(C)(C)N1)C(=O)O` [Compound 5Al, 3S-6,7-dihydroxy-1,1-dimethyl-1,2,3,4-tetrahydro-isoquinoline-3-acyl-Lys(Pro-Ala-Leu)]: 14.65 ± 2.86^a mg. The same measure, in the same setting: in the case of `C[C@H](NC(=O)[C@@H]1CCCN1)C(=O)N[C@@H](CCC(N)=O)C(=O)NCCCC[C@H](NC(=O)[C@@H]1Cc2cc(O)c(O)cc2C(C)(C)N1)C(=O)O` [Compound 5Am, 3S-6,7-dihydroxy-1,1-dimethyl-1,2,3,4-tetrahydro-isoquinoline-3-acyl-Lys(Pro-Ala-Gln)] it was 16.65 ± 2.52^a mg. On the same count and under the same terms, in the case of `C[C@H](NC(=O)[C@@H]1CCCN1)C(=O)N[C@@H](CC(N)=O)C(=O)NCCCC[C@H](NC(=O)[C@@H]1Cc2cc(O)c(O)cc2C(C)(C)N1)C(=O)O` [Compound 5An, 3S-6,7-dihydroxy-1,1-dimethyl-1,2,3,4-tetrahydro-isoquinoline-3-acyl-Lys(Pro-Ala-Asn)] it was 16.44 ± 2.32^a mg. Turning to `C[C@H](NC(=O)[C@@H]1CCCN1)C(=O)N[C@@H](CC(=O)O)C(=O)NCCCC[C@H](NC(=O)[C@@H]1Cc2cc(O)c(O)cc2C(C)(C)N1)C(=O)O` [Compound 5Ao, 3S-6,7-dihydroxy-1,1-dimethyl-1,2,3,4-tetrahydro-isoquinoline-3-acyl-Lys(Pro-Ala-Asp)], the “Weight reduction in thrombus” value is recorded as 15.86 ± 2.21^a mg and the “Thrombolytic activity, result in words” value is “comparable to that of urokinase”. With `C[C@H](NC(=O)[C@@H]1CCCN1)C(=O)N[C@@H](CCC(=O)O)C(=O)NCCCC[C@H](NC(=O)[C@@H]1Cc2cc(O)c(O)cc2C(C)(C)N1)C(=O)O` [Compound 5Ap, 3S-6,7-dihydroxy-1,1-dimethyl-1,2,3,4-tetrahydro-isoquinoline-3-acyl-Lys(Pro-Ala-Glu)], the “Weight reduction in thrombus” value is given as 16.03 ± 2.14^a mg.
